pIC50: −log10 of the molar value.
Experiments:
HepG2 [1] = experiment: Induction of apoptosis in human HepG2 cells assessed as late apoptotic cells at IC50 concentration measured after 24 hrs by Annexin V-FITC/PI staining based flow cytometry method (reference value: 8.7%); format: functional
HepG2 [2] = experiment: Induction of apoptosis in human HepG2 cells assessed as necrotic cells at IC50 concentration measured after 24 hrs by Annexin V-FITC/PI staining based flow cytometry method (reference value: 4.6%); format: functional
C6 [3] = experiment: Cytotoxicity against rat C6 cells assessed as cell viability measured after 24 hrs by MTT assay; format: functional, cell-based; settings: C6, 24 h
HT-29 [4] = experiment: Induction of apoptosis in human HT-29 cells assessed as early apoptotic cells at IC50 concentration measured after 24 hrs by Annexin V-FITC/PI staining based flow cytometry method (reference value: 1.1%); format: functional
HepG2 [5] = experiment: Inhibition of DNA synthesis in human HepG2 cells assessed as reduction in cell proliferation measured after 24 to 48 hrs by BrdU proliferation assay; format: functional, cell-based; settings: time 24-48 hrs
HepG2 [6] = experiment: Cytotoxicity against human HepG2 cells assessed as cell viability measured after 24 hrs by MTT assay; format: functional, cell-based; settings: HepG2, 24 h
MCF7 [7] = experiment: Induction of apoptosis in human MCF7 cells assessed as necrotic cells at IC50 concentration measured after 24 hrs by Annexin V-FITC/PI staining based flow cytometry method (reference value: 1%); format: functional
HepG2 [8] = experiment: Induction of apoptosis in human HepG2 cells assessed as viable cells at IC50 concentration measured after 24 hrs by Annexin V-FITC/PI staining based flow cytometry method (reference value: 87.8%); format: functional
HT-29 [9] = experiment: Induction of apoptosis in human HT-29 cells assessed as viable cells at IC50 concentration measured after 24 hrs by Annexin V-FITC/PI staining based flow cytometry method (reference value: 90.3%); format: functional
HT-29 [10] = experiment: Inhibition of DNA synthesis in human HT-29 cells assessed as reduction in cell proliferation measured after 24 to 48 hrs by BrdU proliferation assay; format: functional, cell-based; settings: time 24-48 hrs
A549 = experiment: Cytotoxicity against human A549 cells assessed as cell viability measured after 24 hrs by MTT assay; format: functional, cell-based; settings: A549, 24 h
MCF7 [11] = experiment: Induction of apoptosis in human MCF7 cells assessed as early apoptotic cells at IC50 concentration measured after 24 hrs by Annexin V-FITC/PI staining based flow cytometry method (reference value: 2.2%); format: functional
MCF7 [12] = experiment: Inhibition of DNA synthesis in human MCF7 cells assessed as reduction in cell proliferation measured after 24 to 48 hrs by BrdU proliferation assay; format: functional, cell-based; settings: time 24-48 hrs
HepG2 [13] = experiment: Induction of apoptosis in human HepG2 cells assessed as early apoptotic cells at IC50 concentration measured after 24 hrs by Annexin V-FITC/PI staining based flow cytometry method (reference value: 0.9%); format: functional
C6 [14] = experiment: Induction of apoptosis in rat C6 cells assessed as apoptotic cells at IC50 concentration measured after 24 hrs by Annexin V-FITC/PI staining based flow cytometry method relative to control; format: functional
HT-29 [15] = experiment: Cytotoxicity against human HT-29 cells assessed as cell viability measured after 24 hrs by MTT assay; format: functional, cell-based; settings: HT-29, 24 h
HT-29 [16] = experiment: Induction of apoptosis in human HT-29 cells assessed as late apoptotic cells at IC50 concentration measured after 24 hrs by Annexin V-FITC/PI staining based flow cytometry method (reference value: 1.5%); format: functional
C6 [17] = experiment: Inhibition of DNA synthesis in rat C6 cells assessed as reduction in cell proliferation measured after 24 to 48 hrs by BrdU proliferation assay; format: functional, cell-based; settings: time 24-48 hrs
HT-29 [18] = experiment: Induction of apoptosis in human HT-29 cells assessed as necrotic cells at IC50 concentration measured after 24 hrs by Annexin V-FITC/PI staining based flow cytometry method (reference value: 7.2%); format: functional
MCF7 [19] = experiment: Induction of apoptosis in human MCF7 cells assessed as viable cells at IC50 concentration measured after 24 hrs by Annexin V-FITC/PI staining based flow cytometry method (reference value: 94.9%); format: functional
MCF7 [20] = experiment: Induction of apoptosis in human MCF7 cells assessed as late apoptotic cells at IC50 concentration measured after 24 hrs by Annexin V-FITC/PI staining based flow cytometry method (reference value: 1.8%); format: functional
[21] = Selectivity index, ratio of IC50 for cytotoxicity against mouse NIH3T3 cells to IC50 for cytotoxicity against human HT-29 cells; format: toxicity, cell-based; settings: NIH3T3 cells versus HT-29 cells, read-out: Ratio IC50
NIH3T3 = experiment: Cytotoxicity against mouse NIH3T3 cells assessed as cell viability measured after 24 hrs by MTT assay; format: cell-based; settings: NIH3T3, 24 h
[22] = Selectivity index, ratio of IC50 for cytotoxicity against mouse NIH3T3 cells to IC50 for cytotoxicity against rat C6 cells; format: toxicity, cell-based; settings: NIH3T3 cells versus C6 cells, read-out: Ratio IC50
[23] = Selectivity index, ratio of IC50 for cytotoxicity against mouse NIH3T3 cells to IC50 for cytotoxicity against human HepG2 cells; format: toxicity, cell-based; settings: NIH3T3 cells versus HepG2 cells, read-out: Ratio IC50
[24] = Selectivity index, ratio of IC50 for cytotoxicity against mouse NIH3T3 cells to IC50 for cytotoxicity against human MCF7 cells; format: toxicity, cell-based; settings: NIH3T3 cells versus MCF7 cells, read-out: Ratio IC50
MCF7 [25] = experiment: Cytotoxicity against human MCF7 cells assessed as cell viability measured after 24 hrs by MTT assay; format: functional, cell-based; settings: MCF7, 24 h
[26] = Drug metabolism in human HepG2 cells assessed as oxidative dehalogenation after 24 hrs by LCMS-IT-TOF analysis; format: ADME, cell-based; settings: hepg2, 24 h
[27] = Drug metabolism in human HepG2 cells assessed as amine metabolite formation after 24 hrs by LCMS-IT-TOF analysis; format: ADME, cell-based; settings: hepg2, 24 h
[28] = Selectivity index, ratio of IC50 for cytotoxicity against mouse NIH3T3 cells to IC50 for cytotoxicity against human A549 cells; format: toxicity, cell-based; settings: NIH3T3 cells versus A549 cells, read-out: Ratio IC50

SMILES | Activity (HepG2 [1]) | Activity (HepG2 [2]) | pIC50 (C6 [3]) | Activity (HT-29 [4]) | inhibition (HepG2 [5]) | pIC50 (HepG2 [6]) | Activity (HepG2 [8]) | Activity (HT-29 [9]) | inhibition (HT-29 [10]) | pIC50 (A549) | Activity (HepG2 [13]) | Activity (C6 [14]) | pIC50 (HT-29 [15]) | Activity (HT-29 [16]) | inhibition (C6 [17]) | Activity (HT-29 [18]) | selectivity ratio [21] | pIC50 (NIH3T3) | selectivity ratio [22] | selectivity ratio [23] | further results
COc1cccc2c1C(=O)c1c(O)c3c(c(O)c1C2=O)C[C@@](O)(C(=O)CO)C[C@@H]3O[C@H]1C[C@H](N)[C@H](O)[C@H](C)O1 [DOXORUBICIN] | 21.4% | 4.2% | 4.59 | 1.9% | Dose-dependent effect | 4.74 | 73.6% | 88% | Dose-dependent effect | 4.97 | 0.9% | 35.7% | 4.79 | 6.6% | Dose-dependent effect | 3.5% | – | – | – | – | Activity (MCF7 [7]): 6.8%; Activity (MCF7 [11]): 1%; inhibition (MCF7 [12]): Dose-dependent effect; Activity (MCF7 [19]): 42.9%; Activity (MCF7 [20]): 49.3%
CN(C)CCCN1CCN(CC(=O)Nc2ccc(-c3nc4cc(Cl)ccc4o3)cc2)CC1 | 27.9% | 1.1% | 6.04 | 6.5% | Dose-dependent effect | 5.90 | 62.6% | 85.5% | Dose-dependent effect | 5.36 | 8.3% | 13.6% | 5.79 | 7.4% | Dose-dependent effect | 0.6% | 15.7 | 4.59 | 28.3 | 20.6 | selectivity ratio [24]: 15.6; Activity (MCF7 [7]): 3.9%; pIC50 (MCF7 [25]): 5.78; Activity (MCF7 [11]): 23.7%; inhibition (MCF7 [12]): Dose-dependent effect; Drug metabolism [26]: Metabolite_Detected; Drug metabolism [27]: Metabolite_Detected; selectivity ratio [28]: 5.96; Activity (MCF7 [19]): 25.9%; Activity (MCF7 [20]): 46.4%
CN(C)CCN1CCN(CC(=O)Nc2ccc(-c3nc4cc(Cl)ccc4o3)cc2)CC1 | 10.3% | 0.8% | 5.99 | – | Dose-dependent effect | 5.58 | 85.2% | – | – | 5.15 | 3.7% | 10.7% | 5.35 | – | Dose-dependent effect | – | 6.41 | 4.54 | 27.8 | 10.9 | selectivity ratio [24]: 3.62; pIC50 (MCF7 [25]): 5.10; Drug metabolism [26]: Metabolite_Detected; Drug metabolism [27]: Metabolite_Detected; selectivity ratio [28]: 4.04
Cc1ccc2oc(-c3ccc(NC(=O)CN4CCN(CCN(C)C)CC4)cc3)nc2c1 | – | – | 5.79 | 15% | – | 5.90 | – | 76% | Dose-dependent effect | 5.44 | – | 19.3% | 5.75 | 8.5% | Dose-dependent effect | 0.4% | 16.2 | 4.54 | 17.8 | 22.8 | selectivity ratio [24]: 1.22; pIC50 (MCF7 [25]): 4.63; selectivity ratio [28]: 7.9

— ChEMBL document CHEMBL4732094, “Synthesis of some new benzoxazole derivatives and investigation of their anticancer activities” (Eur J Med Chem, 2021)
